Test results published in US6653344B2, “Pharmaceutical preparations containing a dibenzocyclooctane lignan derivative for treatment of neurodegenerative disease” (Elcom Bio Technology Co., Ltd., priority 2000, dated 2003).

Tests used:
Assay type in all cases: cell-based
[1] = tested on: KA-insulted primary cultured rat cortical cells; assay: Neuroprotection against KA-induced toxicity, cell viability by MTT assay; conditions: for Viability (%) KA-insulted: compound 1 µM for 1 hr, then 50 µM KA, 24 hr
Protocol: Primary cultures of mixed cortical cells containing both neuron and glia were prepared from fetal rats as described previously (Kim Y C, Kim S R, Markelonis G J and Oh T H (1998) Ginsenosides Rb1 and Rg3 protect cultured rat cortical cells from glutamate-induced neurodegeneration. J. Neurosci. Res. 53: 426-432).
The cortical cells were plated onto collagen-coated dishes at a density of 1×10^6 cells/ml. The cultured cells were grown in DMEM supplemented with 10% heat-inactivated fetal calf serum, 1 mM sodium pyruvate, 100 IU/ml pecicillin and 100 μg/ml streptomycin at 37° C. in a humidified atmosphere of 95% air/5% CO2. cultures were allowed to mature for 2 weeks before being used for experiments.
To culture broth of the cortical cells during being cultured, MTT(5 mg/ml) was added by 10% of the culture broth. The broth was cultured for more 3 hours. The formed formazan was dissolved by DMSO and was assayed absorption at 540 nm ((Mosmann T (1983) Rapid colorimetric assay for cellular growth and survival: Application to proliferation and cytotoxicity assays. J. Immuno. Methods 65: 55-61)
Glutamate receiptor is divided into NMDA receiptor which is activated by NMDA and non-NMDA receiptor which is activated by alpha-amino-3-hydroxy-5-methyl-4-isoxazole and kainic acid (KA). To first cultured cortical cells, the above compounds were each treated. The neuro-protective activities of the compounds were measured, after toxicities were induced by NMDA, the NMDA receiptor agonist, or KA, the non-NMDA receiptor agonist.
Rat cortical cultures were treated with compounds at the concentration of 1 M for 1 hr. The cultures were then exposed to 50 µM NMDA or 50 µM KA and were maintained for an additional 24 hr. […]. Cell viability was measured by the MTT assay. Optical density of control, NMDA- and KA treated were 1.20±0.10, 0.77±0.05 and 0.85±0.08, respectively. Viability was calculated as the same as Table 1. Values given represent the mean SD (n=3).

[2] = tested on: nitric oxide (NO) content in glutamate-damaged primary cultured rat cortical cells; assay: Measurement of nitrite (Griess reagent), NO content; conditions: 24 hr; for Nitrate: compound 1 µM for 1 hr before 100 µM glutamate, control 90.2, glutamate-treated 141.8; for Protection (NO content): compound 1 M (1 μM) for 1 hr before 100 M glutamate
Protocol: The content of nitrite isolated into culture broth from first cultured cortical cells was assayed by using Griess reagent by Dawson's method (Dawson V L, Brahbhatt H P, Mong J A and Dawson T M (1994) Expression of inducible nitric oxide synthase causes delayed neurotoxicity in primary neuronal-glial cortical cultures. Neuropharmacology 33: 1425-1430).
(§1) In case glutamate is treated to first cultured cortical cells of mice, formation of NO is increased. […] When schizandrin is treated at the 1 μM concentration, it decreased NO content increased by glutamate. […] When deoxyschizandrin, gomisin N and wuweizisu C are treated at 1 uM concentration to first cultured cortical cells toxicity-induced by glutamate, those maintained about 50% of normal state activity of GSH-px and glutathione decreased by glutamate and have protective activity on the activity of antioxidant enzymes.
(§2) Rat cortical cultures were treated with compounds at the concentration of 1 M for 1 hr before exposure to 100 M glutamate and then maintained for 24 hr. Values given represent the mean SD (n=3).

[3] = tested on: GSH content in glutamate-injured primary cultured rat cortical cells; assay: Measurement of total GSH (GSH+GSSG); conditions: 24 hr; for GSH: compound 1 µM for 1 hr before 100 µM glutamate, control 6.9, glutamate-treated 2.6; for Protection (GSH content): compound 1 M (1 uM) for 1 hr before 100 M glutamate
Protocol: Cells were collected by adding 0.1M potassium phosphate buffer (pH 7.4) to culture-broth-removed remainings from first cultured cortical cells. The collected cells were treated by supersonic wave for 20 seconds and were centrifuged at 4° C. with 3,000 g for 20 minutes to obtain the supernatant.
In test tube, 70 μl solution containing 0.3 mM NADPH and 5 mM DTNB was prepared 0.100 μl of cell supernatant was added and final content 5 units/ml of GSSG-R was added thereto and was reacted. The increase of adsorption was measured at 412 nm for 1 minute. The content of GSH was converted and obtained by comparing the content of GSH with GSH standard. (Tietze F, Enzymatic method for quantative determination of nanogram amounts of total and oxidized glutathione, Anal Biochem 27: 502-522).
as §1, §2

Compound | neuroprotective activity against toxicity induced by KA (in words) [1] | Viability (%) KA-insulted [1] | Nitrate [2] | Protection (NO content) [2] | GSH [3] | Protection (GSH content) [3] | Protection (GSH content) ([3]; listed as deoxyschizandrin) | Protection (GSH content) ([3]; listed as gomisin N) | Protection (GSH content) ([3]; listed as wuweizisu C)
COc1cc2c(c(OC)c1OC)-c1c(cc(OC)c(OC)c1OC)C[C@H](C)[C@H](C)C2 [Deoxyschizandrin, deoxyschizandrin] | selectively neuroprotective activity | 38.2 ± 4.2 % | 121.9 ± 3.1 nM | 40.2% | 4.7 ± 1.1 μmol/mg protein | 48.8% | about 50% | – | –
COc1cc2c(c(OC)c1OC)-c1c(cc3c(c1OC)OCO3)C[C@H](C)[C@H](C)C2 [Gomisin N, gomisin N] | – | 25.5 ± 4.5% | 111.4 ± 3.3 nM | 60.2% | 4.8 ± 1.3 μmol/mg protein | 51.2% | – | about 50% | –
COc1c2c(cc3c1-c1c(cc4c(c1OC)OCO4)C[C@H](C)[C@H](C)C3)OCO2 [Wuweizisu C, wuweizisu C] | – | 15.0 ± 3.9% | 107.6 ± 2.9 nM | 65.8% | 4.4 ± 0.9 μmol/mg protein | 41.9% | – | – | about 50%
